According to ChEMBL document CHEMBL1201862, “PubChem BioAssay data set” (2004):
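Compound exposure: 48 hours, 5 concentrations, 96-well plates. The concentration for 50% growth inhibition is given as GI50.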 Activity calls are given as the source filed them. Rule as the data show it: active = GI50 up to about 1.1 µM and inactive = higher.

Columns and labels:
Experiment in all cases: growth of human tumour cells (NCI), 48 h
RXF 393 = test system: RXF 393
SK-OV-3 = test system: SK-OV-3
LOX IMVI = test system: LOX IMVI
NCI-H23 = test system: NCI-H23
SW-620 = test system: SW-620
HOP-92 = test system: HOP-92
OVCAR-5 = test system: OVCAR-5
NCI-H522 = test system: NCI-H522
RPMI-8226 = test system: RPMI-8226
NCI-H460 = test system: NCI-H460
SK-MEL-5 = test system: SK-MEL-5
SF-539 = test system: SF-539
NCI-H226 = test system: NCI-H226
SF-295 = test system: SF-295
NCI/ADR-RES = test system: NCI/ADR-RES
HOP-62 = test system: HOP-62
HL-60 = test system: HL-60
HCT-116 = test system: HCT-116
MDA-MB-435 = test system: MDA-MB-435
CAKI-1 = test system: CAKI-1

SMILES	GI50 (RXF 393)	GI50 (SK-OV-3)	GI50 (LOX IMVI)	GI50 (NCI-H23)	GI50 (SW-620)	GI50 (HOP-92)	GI50 (OVCAR-5)	GI50 (NCI-H522)	GI50 (RPMI-8226)	GI50 (NCI-H460)	GI50 (SK-MEL-5)	GI50 (SF-539)	GI50 (NCI-H226)	GI50 (SF-295)	GI50 (NCI/ADR-RES)	GI50 (HOP-62)	GI50 (HL-60)	GI50 (HCT-116)	GI50 (MDA-MB-435)	GI50 (CAKI-1)
Cc1ccc2nc(Cl)c(/C=N/N3C(=O)/C(=C/Cc4ccco4)N=C3c3ccccc3)cc2c1	2.54 µM (inactive)	> 100 µM (inactive)	27.4 µM (inactive)	> 49.2 µM (inactive)	58.1 µM (inactive)	28.9 µM (inactive)	> 74.6 µM (inactive)	27.4 µM (inactive)	27 µM (inactive)	26.4 µM (inactive)	56.4 µM (inactive)	43.6 µM (inactive)	> 54.6 µM (inactive)	> 82.8 µM (inactive)	28.4 µM (inactive)	62.2 µM (inactive)	34.1 µM (inactive)	18.5 µM (inactive)	2.1 µM (inactive)	5.04 µM (inactive)
CCCCCCCCCCCCCCCCCCNc1ccn(C2OC(COP(=O)(O)OC3CC(n4cc(F)c(=O)[nH]c4=O)OC3COP(=O)(O)OCC3OC(n4ccc(N)nc4=O)C(O)C3O)C(O)C2O)c(=O)n1 (stereo not given)	16 µM (inactive)	19.9 µM (inactive)	0.139 µM (active)	2.92 µM (inactive)	16.2 µM (inactive)	> 60.4 µM (inactive)	36.5 µM (inactive)	13 µM (inactive)	14.9 µM (inactive)	< 0.0129 µM (active)	3.62 µM (inactive)	< 0.01 µM (active)	> 24 µM (inactive)	0.413 µM (active)	14.5 µM (inactive)	10.4 µM (inactive)	0.26 µM (active)	1.03 µM (active)	8.18 µM (inactive)	4.47 µM (inactive)
O=[N+]([O-])c1ccc(-c2nnc(C34CC5CC(CC(C5)C3)C4)o2)cc1	> 100 µM (inactive)	> 100 µM (inactive)	> 100 µM (inactive)	> 100 µM (inactive)	> 100 µM (inactive)	> 100 µM (inactive)	> 100 µM (inactive)	> 100 µM (inactive)	> 100 µM (inactive)	> 100 µM (inactive)	> 100 µM (inactive)	> 100 µM (inactive)	> 100 µM (inactive)	> 100 µM (inactive)	> 100 µM (inactive)	> 100 µM (inactive)	> 100 µM (inactive)	> 100 µM (inactive)	> 100 µM (inactive)	> 100 µM (inactive)
